Experimental data as given in the supplement of paper PMC10307832.

Experiments:
Experiment in all cases: relative viability (nuclei count vs DMSO), 5 days (fraction); higher = more cells survive
[1] = compound: CC1=CC(=CC=C1)NC2=NC(=CS2)C3=CC=NC=C3 + CCNC(=O)c1noc(-c2cc(C(C)C)c(O)cc2O)c1-c1ccc(CN2CCOCC2)cc1 [Luminespib] (partner 0.01 µM)
Summary of the method: (§1)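 Relative viability is defined as nuclei in treated wells over nuclei in vehicle wells. Duplicate plates were run and medians reported. Lung cancer cell lines in 1536-well plates were dosed by pin tool one day after seeding, with one drug or with a fixed anchor-drug dose plus five library-drug doses (not always all listed) in √10 steps, and nuclei were counted after 5 days.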

[2] = compound: Cc1ccc(NC(=O)c2ccc(CN3CCN(C)CC3)cc2)cc1Nc1nc(-c2cccnc2)cs1 [Masitinib] + CC(=O)Nc1cccc(-n2c(=O)n(C3CC3)c(=O)c3c(Nc4ccc(I)cc4F)n(C)c(=O)c(C)c32)c1 [Trametinib] (partner 0.02 µM)
Summary of the method: as §1

[3] = compound: Cc1ccc(NC(=O)c2ccc(CN3CCN(C)CC3)cc2)cc1Nc1nc(-c2cccnc2)cs1 [Masitinib] + C[C@]1(O)C[C@@H](c2nc(-c3ccc4ccc(-c5ccccc5)nc4c3)c3c(N)nccn32)C1 [Linsitinib] (partner 1 µM)
Summary of the method: as §1

[4] = compound: Cc1ccc(NC(=O)c2ccc(CN3CCN(C)CC3)cc2)cc1Nc1nc(-c2cccnc2)cs1 [Masitinib] + Nc1ncn([C@H]2C[C@H](O)[C@@H](CO)O2)c(=O)n1 [Decitabine] (partner 2 µM)
Summary of the method: as §1

Cell Line | relative viability ([1]; first compound 0.08 µM) | relative viability ([1]; first compound 0.253 µM) | relative viability ([1]; first compound 0.8 µM) | relative viability ([1]; first compound 2.53 µM) | relative viability ([1]; first compound 8 µM) | relative viability ([2]; first compound 0.01 µM) | relative viability ([2]; first compound 0.03162 µM) | relative viability ([2]; first compound 0.1 µM) | relative viability ([2]; first compound 0.3162 µM) | relative viability ([2]; first compound 1 µM) | relative viability ([3]; first compound 0.01 µM) | relative viability ([3]; first compound 0.03162 µM) | relative viability ([3]; first compound 0.1 µM) | relative viability ([3]; first compound 0.3162 µM) | relative viability ([3]; first compound 1 µM) | relative viability ([4]; first compound 0.01 µM) | relative viability ([4]; first compound 0.03162 µM) | relative viability ([4]; first compound 0.1 µM) | relative viability ([4]; first compound 0.3162 µM) | relative viability ([4]; first compound 1 µM)
NCI-H23 | 0.208 | 0.184 | 0.208 | 0.221 | 0.22 | 0.305 | 0.368 | 0.469 | 0.375 | 0.354 | 0.656 | 0.58 | 0.613 | 0.525 | 0.493 | 0.312 | 0.346 | 0.341 | 0.274 | 0.262
NCI-H322M | 0.76 | 0.893 | 0.924 | 0.961 | 0.982 | 0.576 | 0.465 | 0.519 | 0.637 | 0.566 | 0.975 | 0.736 | 0.91 | 0.681 | 0.912 | 0.626 | 0.733 | 0.612 | 0.719 | 0.706
NCI-H358 | 0.286 | 0.605 | 0.305 | 0.436 | 0.231 | 0.148 | 0.13 | 0.135 | 0.121 | 0.122 | 0.86 | 0.877 | 0.715 | 0.809 | 0.623 | 0.184 | 0.195 | 0.243 | 0.189 | 0.192
NCI-H441 | 0.411 | 0.328 | 0.411 | 0.391 | 0.384 | 0.5 | 0.488 | 0.547 | 0.336 | 0.397 | 0.563 | 0.532 | 0.501 | 0.534 | 0.497 | 0.214 | 0.23 | 0.262 | 0.233 | 0.244
NCI-H460 | 0.0315 | 0.0322 | 0.04 | 0.0298 | 0.0349 | 0.13 | 0.121 | 0.139 | 0.13 | 0.13 | 0.934 | 0.934 | 0.977 | 1.26 | 1.07 | 0.307 | 0.378 | 0.45 | 0.455 | 0.462
NCI-H520 | 0.223 | 0.201 | 0.252 | 0.206 | 0.241 | 0.752 | 0.634 | 0.873 | 0.76 | 0.598 | 1.12 |  | 1.15 | 0.97 | 0.915 | 0.482 | 0.482 | 0.513 | 0.59 | 0.437
NCI-H596 | 0.938 | 0.959 | 0.809 | 0.911 | 0.814 | 0.723 | 0.691 | 0.789 | 0.678 | 0.732 | 1.21 | 0.98 | 1.05 | 1.14 | 1.05 | 0.994 | 0.959 | 1.11 | 1.14 | 0.934
NCI-H647 | 0.114 | 0.162 | 0.177 | 0.313 | 0.338 | 0.45 | 0.381 | 0.435 | 0.364 | 0.411 | 1.03 | 1.19 | 1.03 | 0.849 | 1.26 | 0.369 | 0.318 | 0.487 | 0.408 | 0.364
NCI-H650 | 0.866 | 0.803 | 0.929 | 0.687 | 0.893 | 1.05 | 1.1 | 1.03 | 1.28 | 0.99 | 0.796 | 0.752 | 0.896 | 0.981 | 0.806 | 0.307 | 0.343 | 0.308 | 0.298 | 0.36
NCI-H661 | 0.887 | 0.963 | 0.885 | 0.887 | 0.863 | 0.493 | 0.486 | 0.563 | 0.591 | 0.564 | 0.653 | 0.569 | 0.577 | 0.584 | 0.428 | 0.502 | 0.552 | 0.515 | 0.535 | 0.545
NCI-H727 |  | 0.373 | 0.378 | 0.374 | 0.402 | 0.333 | 0.375 | 0.417 | 0.366 | 0.334 | 0.228 | 0.268 | 0.297 | 0.281 | 0.196 | 0.808 | 1.03 | 0.763 | 0.729 | 0.781
NCI-H838 | 0.38 | 0.318 | 0.324 | 0.316 | 0.25 | 0.375 | 0.425 | 0.458 | 0.451 | 0.488 | 0.895 | 0.913 | 1.16 | 0.86 | 1.05 | 0.446 | 0.475 | 0.432 | 0.445 | 0.44
NCI-H1355 | 0.64 | 0.583 | 0.375 | 0.477 | 0.502 | 0.439 | 0.35 | 0.497 | 0.329 | 0.468 | 0.808 | 0.697 | 0.884 | 0.743 | 0.801 | 0.351 | 0.345 | 0.393 | 0.341 | 0.367
NCI-H1395 | 0.597 | 0.72 | 0.688 | 0.643 | 0.524 | 1.01 | 1.03 | 1.04 | 1.11 | 0.973 | 1.05 | 1.09 | 1.09 | 0.959 | 1.02 | 0.734 | 0.705 | 0.694 | 0.703 | 0.62
NCI-H1437 | 1.18 | 1.17 | 1.1 | 1.13 | 0.98 | 0.511 | 0.507 | 0.52 | 0.494 | 0.449 | 1.1 | 0.991 | 0.986 | 1.04 | 1.07 | 0.559 | 0.565 | 0.582 | 0.524 | 0.527
NCI-H1651 | 1.16 | 0.893 | 0.875 | 0.706 | 0.74 | 0.776 | 0.792 | 0.836 | 0.901 | 0.856 | 0.971 | 0.97 | 1.14 | 1 | 0.944 | 0.551 | 0.674 | 0.595 | 0.598 | 0.584
